The record followed here is patent US20140004223A1, “MOUTH-MOISTENING GUM COMPOSITIONS AND PRODUCTS CONTAINING THE SAME” (Three Parkway North, priority 2010, published 2014).

One data set can be described thus: water solubility. It counts as physicochemical. The text has this: In some embodiments, one or more ingredients may be encapsulated with an encapsulating material can also modify the release profile of the ingredient.
The nature of data set [1]: taste testing of synthetic compound versus plant extracts. It counts as in vivo. To be noted: based on taste testing, compared with some comparable plant extracts. The text has this: Synthetic (2E,5Z,8E)-deca-2,6,8-trienoic acid N-isobutyl amide, being more pure than botanical sources, can be distinguished to some extent based on taste sensations. Synthetic (2E,5Z,8E)-deca-2,6,8-trienoic acid N-isobutyl amide can have a purity of at least about 90 percent. In some embodiments, synthetic (2E,5Z,8E)-deca-2,6,8-trienoic acid N-isobutyl amide can provide relatively higher mouth-moistening relative to tingling or heating/cooling sensations, compared to, for example, equivalent amounts of spilanthol in jambu. […] In one embodiment a combination of synthetic (2E,5Z,8E)-deca-2,6,8-trienoic acid N-isobutyl amide and a affinin plant extract is used. For example, within the given range of 75 to 300 ppm the affinin compound, the amount of affinin active provided by synthetic (2E,5Z,8E)-deca-2,6,8-trienoic acid N-isobutyl amide can vary from 20 to 80 wt. % and the amount of (2E,5Z,8E)-deca-2,6,8-trienoic acid N-isobutyl amide provided by plant extract of Heliopsis Longipes can vary from 80 to 20 wt. %.

On to `C/C=C/C=C\CC/C=C/C(=O)NCC(C)C` [affinin compound, (2E,5Z,8E)-deca-2,6,8-trienoic acid N-isobutyl amide], for which the water solubility result in “water solubility” was “not water soluble”. In addition, in data set [1], the “taste profile / tingling” value is recorded as “a cleaner profile and/or less tingling”.
